Test results reported in article PMC5641481 (Science (New York, N.Y.), 2017).

Experiments:
FAAH [1] = molecular target: T1, FAAH (Homo sapiens, UniProt O00519); test: ABPP of human frontal cortex proteome; assay type: biochemical; details: human frontal cortex proteome (post-mortem)
T1 sequence (O00519 1-579): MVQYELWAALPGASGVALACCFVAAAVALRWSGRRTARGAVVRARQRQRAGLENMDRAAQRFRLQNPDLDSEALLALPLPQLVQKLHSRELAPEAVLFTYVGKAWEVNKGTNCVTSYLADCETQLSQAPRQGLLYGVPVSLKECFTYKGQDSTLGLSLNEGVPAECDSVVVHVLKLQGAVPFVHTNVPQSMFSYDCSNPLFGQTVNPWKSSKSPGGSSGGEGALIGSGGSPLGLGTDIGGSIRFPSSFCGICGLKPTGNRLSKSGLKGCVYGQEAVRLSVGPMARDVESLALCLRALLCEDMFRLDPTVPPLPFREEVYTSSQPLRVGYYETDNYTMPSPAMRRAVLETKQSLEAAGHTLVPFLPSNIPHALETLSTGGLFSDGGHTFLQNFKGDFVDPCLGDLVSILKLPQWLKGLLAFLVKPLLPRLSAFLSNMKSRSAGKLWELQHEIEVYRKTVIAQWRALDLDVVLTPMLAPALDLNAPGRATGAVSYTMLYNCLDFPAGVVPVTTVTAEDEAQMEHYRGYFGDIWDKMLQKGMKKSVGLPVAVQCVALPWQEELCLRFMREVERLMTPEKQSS

FAAH [2] = molecular target: T1, FAAH; test: MS-based ABPP in SW620 cells; assay type: cell-based; details: all tested concentrations (0.2, 10, and 50 μM)
FAAH [3] = molecular target: T1, FAAH; test: anandamide substrate hydrolysis assay, intact transfected HEK293T cells; assay type: cell-based; details: human FAAH in transfected HEK293T cells, in situ
FAAH [4] = molecular target: T1, FAAH; test: competitive gel-based ABPP, HEK293T cell lysates; assay type: biochemical; details: in vitro, HEK293T recombinantly expressing human enzyme
FAAH [5] = molecular target: T1, FAAH; test: competitive gel-based ABPP, intact HEK293T cells; assay type: cell-based; details: in situ (4 h)
FAAH [6] = molecular target: T1, FAAH; test: anandamide substrate hydrolysis assay, HEK293T cell lysates; assay type: biochemical; details: in vitro
ABHD6 [7] = molecular target: T2, ABHD6 (Homo sapiens, UniProt Q9BV23); test: ABPP of human frontal cortex proteome; assay type: biochemical; details: human frontal cortex proteome (post-mortem)
T2 sequence (Q9BV23 1-337): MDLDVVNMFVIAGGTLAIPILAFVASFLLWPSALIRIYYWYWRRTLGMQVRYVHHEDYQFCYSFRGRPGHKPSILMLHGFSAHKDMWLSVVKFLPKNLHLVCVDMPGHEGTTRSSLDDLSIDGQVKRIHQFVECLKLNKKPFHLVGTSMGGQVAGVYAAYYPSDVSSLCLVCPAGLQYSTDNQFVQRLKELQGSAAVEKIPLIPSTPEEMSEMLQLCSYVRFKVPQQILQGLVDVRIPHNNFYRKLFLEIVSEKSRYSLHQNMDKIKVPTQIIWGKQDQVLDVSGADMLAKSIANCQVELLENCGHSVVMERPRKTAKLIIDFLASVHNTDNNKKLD

ABHD6 [8] = molecular target: T2, ABHD6; test: competitive gel-based ABPP, intact HEK293T cells; assay type: cell-based; details: ABHD6, in situ (4 h)
[9] = system: other proteins of the endocannabinoid system, endocannabinoid-binding TRP ion channels; test: interaction with other endocannabinoid system proteins and TRP channels
PNPLA6 = PNPLA6 (Homo sapiens, UniProt Q8IY17); details: PNPLA6, in situ (24 h), gel-based ABPP, HEK293T
rat FAAH = molecular target: T3, rat FAAH (Rattus norvegicus, UniProt P97612); test: substrate hydrolysis assay; assay type: biochemical; details: in vitro
T3 sequence (P97612 1-579): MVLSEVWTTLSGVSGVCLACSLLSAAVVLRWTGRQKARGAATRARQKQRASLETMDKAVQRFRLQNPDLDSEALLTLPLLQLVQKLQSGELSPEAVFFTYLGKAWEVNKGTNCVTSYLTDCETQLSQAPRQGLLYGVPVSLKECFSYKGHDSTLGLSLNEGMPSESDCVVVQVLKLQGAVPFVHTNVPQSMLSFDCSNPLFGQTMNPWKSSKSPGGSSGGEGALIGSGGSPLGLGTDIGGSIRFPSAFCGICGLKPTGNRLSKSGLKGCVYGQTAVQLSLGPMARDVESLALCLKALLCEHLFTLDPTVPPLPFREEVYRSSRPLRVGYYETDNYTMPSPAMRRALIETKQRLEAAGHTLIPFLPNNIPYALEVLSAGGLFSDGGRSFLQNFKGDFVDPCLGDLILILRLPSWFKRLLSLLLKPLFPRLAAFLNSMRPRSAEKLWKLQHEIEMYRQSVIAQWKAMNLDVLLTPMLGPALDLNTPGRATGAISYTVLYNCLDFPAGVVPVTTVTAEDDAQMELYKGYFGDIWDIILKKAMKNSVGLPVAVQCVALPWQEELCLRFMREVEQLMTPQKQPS

FAAH2 = molecular target: T4, FAAH2 (Homo sapiens, UniProt Q6GMR7); test: competitive gel-based ABPP, intact HEK293T cells; assay type: cell-based; details: FAAH2, in situ (4 h)
T4 sequence (Q6GMR7 1-532): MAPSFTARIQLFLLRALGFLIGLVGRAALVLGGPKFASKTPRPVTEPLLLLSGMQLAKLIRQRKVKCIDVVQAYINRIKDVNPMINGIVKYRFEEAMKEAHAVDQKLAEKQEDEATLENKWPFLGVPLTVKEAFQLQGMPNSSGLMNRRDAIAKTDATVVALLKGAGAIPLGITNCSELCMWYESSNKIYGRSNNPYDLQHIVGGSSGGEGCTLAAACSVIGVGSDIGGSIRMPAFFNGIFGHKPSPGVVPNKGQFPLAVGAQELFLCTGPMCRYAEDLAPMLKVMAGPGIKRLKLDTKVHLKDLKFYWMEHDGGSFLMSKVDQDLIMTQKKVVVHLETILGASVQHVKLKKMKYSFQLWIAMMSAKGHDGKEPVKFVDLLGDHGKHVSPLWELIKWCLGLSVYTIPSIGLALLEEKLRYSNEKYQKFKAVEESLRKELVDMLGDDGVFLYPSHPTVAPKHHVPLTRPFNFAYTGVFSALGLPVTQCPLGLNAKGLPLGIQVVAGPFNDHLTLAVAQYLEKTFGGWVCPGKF

ABHD11 = molecular target: T5, ABHD11 (Homo sapiens, UniProt Q8NFV4); test: competitive gel-based ABPP, intact HEK293T cells; assay type: cell-based; details: ABHD11, in situ (4 h)
T5 sequence (Q8NFV4 1-306): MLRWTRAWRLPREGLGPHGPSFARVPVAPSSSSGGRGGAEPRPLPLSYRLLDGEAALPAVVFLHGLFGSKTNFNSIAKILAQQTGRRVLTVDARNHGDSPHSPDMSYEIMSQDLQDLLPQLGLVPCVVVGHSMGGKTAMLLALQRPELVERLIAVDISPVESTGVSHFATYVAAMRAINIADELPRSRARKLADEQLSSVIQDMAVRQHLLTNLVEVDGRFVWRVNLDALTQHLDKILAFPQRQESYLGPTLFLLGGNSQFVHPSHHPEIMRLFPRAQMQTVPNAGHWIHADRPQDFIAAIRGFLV

ABHD6 [10] = molecular target: T2, ABHD6; test: MS-based ABPP in SW620 cells; assay type: cell-based
CES2 = molecular target: T6, CES2 (Homo sapiens, UniProt O00748); test: competitive gel-based ABPP, intact HEK293T cells; assay type: cell-based; details: CES2, in situ (4 h)
T6 sequence (O00748 27-559): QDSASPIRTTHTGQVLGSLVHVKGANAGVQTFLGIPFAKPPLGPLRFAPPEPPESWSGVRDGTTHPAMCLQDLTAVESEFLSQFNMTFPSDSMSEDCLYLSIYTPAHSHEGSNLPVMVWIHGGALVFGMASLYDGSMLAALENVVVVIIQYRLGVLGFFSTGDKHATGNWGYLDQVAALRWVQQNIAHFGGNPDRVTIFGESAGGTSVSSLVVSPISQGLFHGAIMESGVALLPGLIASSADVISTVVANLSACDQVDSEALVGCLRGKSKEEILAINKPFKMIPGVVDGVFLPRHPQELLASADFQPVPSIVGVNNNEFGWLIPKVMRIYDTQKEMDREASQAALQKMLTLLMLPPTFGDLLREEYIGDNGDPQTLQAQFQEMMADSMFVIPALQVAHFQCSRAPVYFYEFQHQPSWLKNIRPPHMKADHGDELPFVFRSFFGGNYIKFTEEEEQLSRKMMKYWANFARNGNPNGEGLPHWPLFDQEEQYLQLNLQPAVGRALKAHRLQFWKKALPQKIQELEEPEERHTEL

PNPLA6, sequence (Q8IY17 whole entry): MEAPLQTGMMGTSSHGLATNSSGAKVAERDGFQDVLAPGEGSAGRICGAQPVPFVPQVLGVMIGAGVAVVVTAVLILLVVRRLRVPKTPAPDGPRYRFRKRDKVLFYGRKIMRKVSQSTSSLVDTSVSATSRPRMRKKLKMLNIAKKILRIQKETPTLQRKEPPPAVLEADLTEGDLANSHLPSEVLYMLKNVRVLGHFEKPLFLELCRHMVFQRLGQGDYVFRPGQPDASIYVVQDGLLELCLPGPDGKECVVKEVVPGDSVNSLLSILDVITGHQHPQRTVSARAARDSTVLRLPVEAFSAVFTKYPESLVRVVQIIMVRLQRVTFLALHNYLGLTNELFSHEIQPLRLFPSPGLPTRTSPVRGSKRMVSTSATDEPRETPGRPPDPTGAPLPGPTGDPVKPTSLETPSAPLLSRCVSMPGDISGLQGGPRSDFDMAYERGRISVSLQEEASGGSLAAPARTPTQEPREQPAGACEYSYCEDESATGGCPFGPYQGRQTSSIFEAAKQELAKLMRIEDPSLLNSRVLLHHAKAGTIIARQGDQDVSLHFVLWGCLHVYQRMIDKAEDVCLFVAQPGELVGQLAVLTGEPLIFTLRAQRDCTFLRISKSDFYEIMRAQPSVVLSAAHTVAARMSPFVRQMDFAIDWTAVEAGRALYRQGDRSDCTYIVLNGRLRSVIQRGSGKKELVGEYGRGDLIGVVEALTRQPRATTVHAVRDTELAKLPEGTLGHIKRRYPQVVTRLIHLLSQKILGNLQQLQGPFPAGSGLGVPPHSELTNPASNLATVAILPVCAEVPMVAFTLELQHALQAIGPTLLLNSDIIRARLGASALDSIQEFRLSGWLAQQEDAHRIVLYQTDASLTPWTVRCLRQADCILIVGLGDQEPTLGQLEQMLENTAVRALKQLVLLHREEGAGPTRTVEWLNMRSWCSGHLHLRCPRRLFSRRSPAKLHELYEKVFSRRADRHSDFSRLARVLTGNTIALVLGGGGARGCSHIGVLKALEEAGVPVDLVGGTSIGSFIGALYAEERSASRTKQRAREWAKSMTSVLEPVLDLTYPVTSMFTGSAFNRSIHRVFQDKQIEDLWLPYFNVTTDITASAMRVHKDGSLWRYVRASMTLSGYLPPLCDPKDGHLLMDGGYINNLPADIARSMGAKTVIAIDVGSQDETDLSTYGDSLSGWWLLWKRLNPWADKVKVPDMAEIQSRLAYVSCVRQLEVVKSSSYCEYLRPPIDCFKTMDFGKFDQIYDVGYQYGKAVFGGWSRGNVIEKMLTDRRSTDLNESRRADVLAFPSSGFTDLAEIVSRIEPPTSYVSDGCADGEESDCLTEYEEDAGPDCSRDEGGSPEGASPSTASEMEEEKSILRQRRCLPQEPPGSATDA

| Compound | cross-reactivity with FAAH (FAAH [1]) | engagement of human FAAH (FAAH [2]) | IC50 (FAAH [3]) | IC50 (FAAH [4]) | IC50 (FAAH [5]) | IC50 (FAAH [6]; human FAAH) | cross-reactivity with ABHD6 (ABHD6 [7]) | IC50 (ABHD6 [8]) | interaction with other proteins of the endocannabinoid system or endocannabinoid-binding TRP ion channels [9] | IC50 (PNPLA6) | IC50 (rat FAAH) | IC50 (FAAH2) | IC50 (ABHD11) | inhibition of ABHD6 (ABHD6 [10]; 10 μM, 4 h) | inhibition of ABHD6 (ABHD6 [10]; 50 μM, 24 h) | IC50 (CES2) | IC50 (FAAH [6]; FAAH) |
| --- | --- | --- | --- | --- | --- | --- | --- | --- | --- | --- | --- | --- | --- | --- | --- | --- | --- |
| CN(C(=O)n1cnc(-c2ccc[n+]([O-])c2)c1)C1CCCCC1 [BIA 10-2474] | cross-reactivity | fully engaged | 50 to 70 nM | 7500 nM | 49 nM | ≥ 1000 nM | cross-reactivity | 81 nM | did not interact | 11000 nM | ≥ 1000 nM | 400 nM | > 10000 nM | > 90% | > 90% | – | – |
| CN(C(=O)n1cnc(-c2cccnc2)c1)C1CCCCC1 [BIA 10-2639] | – | – | – | 4100 nM | 49 nM | – | – | 79 nM | – | – | – | 100 nM | – | – | – | 630 nM | – |
| O=C(Nc1cccnn1)N1CCC(=Cc2cccc(Oc3ccc(C(F)(F)F)cn3)c2)CC1 [PF04457845] | – | fully engaged | – | 4 nM | 11 nM | – | – | > 10000 nM | did not interact | > 50000 nM | – | 590 nM | > 10000 nM | – | – | > 10000 nM | 1 to 10 nM |
